Test results from patent publication US7825160B2, “(Biphenyl) carboxylic acids and derivatives thereof” (Cellzome Limited, priority 2004, dated 2010).

Assays:
[1] = Demonstration of CNS penetration, brain and plasma levels in mice; assay type: in vivo; conditions: mouse, oral, mice (C57), 100 mg/kg orally, samples at 2, 4 and 8 h, read-out: % ratio of brain to plasma concentration
Procedure: In-vivo Study: A total number of 24 mice (C57) were dosed orally at 100 mg/kg of drug compound in 10% propylene glycol, 7.5% ethanol and 82.5% solutol. At designated times (2, 4 and 8 his), a group of eight mice were sacrificed, and plasma and brain tissue samples were collected by following the NIH guideline.
Bioanalytical: Plasma samples were prepared as follows. Two hundred microliters of acetonitrile containing internal standard was added to 100 μL of plasma to precipitate proteins. After vortexing, samples were centrifuged at 10000 g for 10 min and supernatants were transferred to HPLC sample vials for analysis by LC-MS-MS. Calibration standards were prepared by adding appropriate volumes of drug stock solution directly into blank plasma (from untreated animals) and processed identically to collected plasma samples.
Brain tissues were first homogenized in two-volume of PBS buffer (e.g. 100 mg tissue in 200 μL PBS). Two hundred microliters of acetonitrile containing internal standard was added to 100 μL of tissue homogenants to precipitate proteins. Three replicates were processed for each tissue homogenant. After vortexing, samples were centrifuged at 10000 g for 10 min and supernatants were transferred to HPLC sample vials for analysis by LC-MS-MS. […]

γ-secretase activity = test: Screening for γ-secretase-modulating activity in SKN neuroblastoma cells carrying APP swedish mutant; assay type: cell-based; conditions: read-out: IC50 on the γ-secretase activity, Activity range
Procedure: Screening was carried out using SKN neuroblastoma cells carrying the APP-“swedish mutant” (point mutations at position 595 and 596, numbering based on APP695) grown in DMEM/NUT-mix F12 (HAM) provided by Gibco (cat no. 31330-38) containing 5% Serum/Fe supplemented with 1% non-essential amino acids, 100 U/ml Pen/Strep.
Cells were grown to near confluency.
The screening was performed using the assay as described in Citron et al (1997) Nature Medicine 3: 67.
IC50-Values of Selected Compounds of the Invention on the γ-Secretase Activity.

Cyclooxygenase-1 (Cox-1) = target: T1, Cyclooxygenase-1 (Cox-1) (Ovis aries, UniProt P05979); test: Colorimetric Cox inhibitor screening assay (Cayman), Cox-1; assay type: biochemical
T1 construct: purchased Cayman Chemical Company 760111
T1 sequence (P05979 25-600): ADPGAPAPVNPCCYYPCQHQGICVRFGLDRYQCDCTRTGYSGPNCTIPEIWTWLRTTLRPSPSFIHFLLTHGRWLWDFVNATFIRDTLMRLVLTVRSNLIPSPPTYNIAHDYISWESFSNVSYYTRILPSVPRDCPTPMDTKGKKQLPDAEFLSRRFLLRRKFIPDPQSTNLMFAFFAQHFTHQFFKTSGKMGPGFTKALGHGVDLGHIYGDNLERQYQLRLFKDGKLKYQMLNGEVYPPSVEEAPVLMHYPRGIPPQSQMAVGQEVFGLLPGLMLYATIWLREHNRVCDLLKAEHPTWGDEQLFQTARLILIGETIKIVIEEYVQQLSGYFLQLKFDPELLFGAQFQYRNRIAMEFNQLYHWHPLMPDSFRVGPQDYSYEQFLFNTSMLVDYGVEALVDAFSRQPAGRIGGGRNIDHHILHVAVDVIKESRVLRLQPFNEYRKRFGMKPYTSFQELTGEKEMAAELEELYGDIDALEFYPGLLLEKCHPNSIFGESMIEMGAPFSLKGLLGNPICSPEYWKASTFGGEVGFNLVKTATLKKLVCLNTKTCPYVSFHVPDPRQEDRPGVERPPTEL
Procedure: (§1) Determination of the Effect of the Compounds According to the Invention on Cyclooxygenase-1 and Cyclooxygenase-2 (Cox-1, Cox-2)
(§2) Inhibition of Cox-1 and Cox-2 was determined using the Colorimetric Cox inhibitor screening assay provided by Cayman Chemical Company, Ann Arbor, Mich., USA. (Cat. No. 760111) according to manufacturer's instructions.

Cyclooxygenase-2 (Cox-2) = target: T2, Cyclooxygenase-2 (Cox-2) (Ovis aries, UniProt P79208); test: Colorimetric Cox inhibitor screening assay (Cayman), Cox-2; assay type: biochemical
T2 construct: purchased Cayman Chemical Company 760111
T2 sequence (P79208 17-603): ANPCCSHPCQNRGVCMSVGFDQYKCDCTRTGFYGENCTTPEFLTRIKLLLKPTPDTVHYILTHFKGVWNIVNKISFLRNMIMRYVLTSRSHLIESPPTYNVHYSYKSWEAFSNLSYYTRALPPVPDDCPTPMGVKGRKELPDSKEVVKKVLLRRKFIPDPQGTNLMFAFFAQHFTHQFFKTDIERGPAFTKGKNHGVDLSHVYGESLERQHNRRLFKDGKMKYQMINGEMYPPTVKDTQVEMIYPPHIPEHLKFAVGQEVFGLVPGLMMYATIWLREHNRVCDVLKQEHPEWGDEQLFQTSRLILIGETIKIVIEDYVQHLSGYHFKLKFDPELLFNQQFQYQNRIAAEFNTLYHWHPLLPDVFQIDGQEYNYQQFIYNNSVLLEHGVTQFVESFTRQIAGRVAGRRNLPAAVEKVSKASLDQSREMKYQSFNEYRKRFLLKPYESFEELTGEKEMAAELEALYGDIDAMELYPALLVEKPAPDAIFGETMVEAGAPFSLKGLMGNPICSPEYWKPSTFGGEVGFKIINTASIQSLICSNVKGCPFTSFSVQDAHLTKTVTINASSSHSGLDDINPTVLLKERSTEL
Procedure: as §1, §2

Kp [1] | IC50 (γ-secretase activity) [µM] | inhibition at 100 µM (Cyclooxygenase-1 (Cox-1)) [%] | inhibition at 100 µM (Cyclooxygenase-2 (Cox-2)) [%] | Compound
0.286 |  |  |  | CCC[C@@H](C(=O)O)c1cc(OCc2ccccc2)cc(-c2ccc(C(F)(F)F)cc2)c1 (single isomer, unassigned) [LXIV]
0.32 |  |  |  | CCC[C@H](C(=O)O)c1cc(OCc2ccccc2)cc(-c2ccc(C(F)(F)F)cc2)c1 (single isomer, unassigned) [LXV]
 | 1 to 10 | < 50 | < 50 | CC(C)(C(=O)O)c1cc(OCc2ccccc2)cc(-c2ccc(C(F)(F)F)cc2)c1 [XX, 2-(5-Benzyloxy-4′-trifluoromethyl-biphenyl-3-yl)-2-methyl-propionic acid]
 | 1 to 10 | < 50 | < 50 | O=C(O)C1(c2cc(OCc3ccccc3)cc(-c3ccc(C(F)(F)F)cc3)c2)CC1 [XXI, 1-(5-Benzyloxy-4′-trifluoromethyl-biphenyl-3-yl)-cyclopropanecarboxylic acid]
 | 1 to 10 | < 50 | < 50 | CCCC(C(=O)O)c1cc(OCc2ccc(S(=O)(=O)N3CCCC3)cc2)cc(-c2ccc(C(F)(F)F)cc2)c1 (centres unmarked) [XXXIX, 2-{5-[4-(Pyrrolidine-1-sulfonyl)-benzyloxy]-4′-trifluoromethyl-biphenyl-3-yl}-pentanoic acid]
